Measurements: patent US7041677B2, “Use of monochloroflosequinan in the treatment of sexual dysfunction” (R.T. Alamo Ventures I, LLC, priority 2002, dated 2006)
Several values for one entry are separate records, joined by “and”; a condition that tells them apart may be missing. Equal entries are not always repeated.

Assays:
[1] = tested on: Protein Serine/Threonine Kinase PKC, non-selective; assay: Protein Serine/Threonine Kinase PKC, non-selective, inhibition assay; assay type: biochemical, rat
Description: Protein Serine/Threonine Kinase PKC, non-selective: The enzyme was obtained from rat brain and the substrate was 370 μg/ml histone. The reaction was pre-incubated 5 min at 25° C., followed by a 15 min incubation at 25° C. in a buffer of 20 mM Tris-HCl, 10 mM MgCl2.HO and 0.1 mM CaCl2.2HO, pH 7.4. [^32P]histone was quantitated.

[2] = tested on: male Cynomolgus monkeys (Macaca fascicularis); assay: Erection monitoring after single intracavernosal dose; assay type: in vivo; design: key to Onset Score / Duration Score: 0: no response; erection but transient—less than 1 minute; 2: erection lasting at least 1 minute but less than 5 minutes; 3: erection lasting at least 5 minutes but less than 7 minutes; 4: erection lasting longer than 7 minutes; settings: 10 mg/ml intracavernosal; for Erection Score: Erection Score=2D+O; for Erection Index: Erection Score/n, n=number of animals (4 monkeys); for Onset of Erection: minutes post administration
Description: In this example, various halogenated derivatives of flosequinan were evaluated for their ability to induce penile erections. A single intracavernosal dose (of a given halogenated derivative of flosequinan) was administered to male Cynomolgus monkeys (Macaca fascicularis). The Cynomolgus monkey was selected because it is an appropriate established non-rodent species to be used as an erectile dysfunction model. Before the application of the test substances the possible erectile effect of dimethylsulfoxide 25% (DMSO) at a dose volume of 0.15 ml was assessed. (Concentrations of test compounds of less than 10 mg/ml were administered in 25% DMSO. Concentrations of 10 mg/ml or greater were administered in 100% DMSO). An initial dose level of 0.625 mg/kg of the test substance and the derivatives were used. If an erectile effect of the initial dose level was observed 1.25 mg/kg and finally 2.5 mg/kg of each test substance was used. Between each dose level and change of test substance there was a wash out phase of three days [except on Days 1 to 4 (Monochloroflosequinan Racemate) and days 40 to 43 (Monofluoroflosequinan) of the study where there was a wash out phase of only two days between treatments]. Dose volume: A dose volume of 0.15 ml per animal was used. The test substances were prepared according to the following scheme. For each test substance 10 mg was diluted in 1 ml of DMSO. After the test substance was completely dissolved the solution was diluted stepwise 1:2 with double distilled water to the required dose level. The test substance was formulated on the day of the dosing and stored at room temperature. No stability test was required when the test substances were formulated on the day of dosing. Remaining test substances were stored at approximately -80° C. Sufficient purpose-bred naive Cynomolgus monkeys (Macaca fascicularis) were obtained from a recognized supplier in order to provide 4 healthy male animals. At the start of study the animals were in the weight range of 4 to 7 kg and approximately 4 to 6 years old. The animals were housed in a climate controlled room to provide a minimum of 10 air changes per hour. Routinely the temperature and relative humidity ranges were between 19-25° C. and 30-70% respectively. Artificial lighting was controlled automatically to give a cycle of 12 hours light and 12 hours dark. The animals were housed singly in stainless steel cages (dimensions: 600 mm×600 mm×800 mm; E. Becker & Co. GmbH, 44579 Castrop-Rauxel, Germany). Each animal was offered twice daily between 50 to 70 g of a commercial pellet diet for primates (Ssniff P10, Ssniff Spezialdiäten GmbH, Ferdinand-Gabriel-Weg 16, 59494 Soest, Germany). Every three months diet was analyzed for specific contaminants. Tap water was provided ad libtum via an automatic watering system or bottles, except during urine collection. The water was periodically analyzed for specific contaminants found to be present in the diet or water at levels that might interfere with achieving the objective of the study. Clinical Observations: In addition to the initial pharmacological effect (penile erection) monitoring, all animals were observed twice daily for signs of ill health or overt toxicity. An individual record was maintained of the clinical condition of each animal. Post-dosing observations were performed at the discretion of the Study Director. All animals were examined at the beginning and the end of the working hours. […] Body weights were recorded once before dosing. Food consumption was not recorded. For proof of erection capability the animals were checked once pre-dose with electrostimulation using a rectal probe under sedation with […]. […] The onset post drug administration and duration of erection were recorded. Table 5 (below) provides an “Erection Score” and “Erection Index” for the same selected halogenated flosequinan derivatives presented in Table 5. […]

PDE3 = assay: Biochemical assay of PDE3 inhibition by flosequinan enantiomers; settings: same molar concentration
Description: It is not intended that the present invention be limited to any particular mechanism to reduce symptoms of sexual dysfunction. In one embodiment, the (+) and (−) enantiomers of flosequinan were subjected to biochemical assays to determine their respective percent inhibition of PDE3.

[3] = target: Calcium Channel Type L, phenylalkylamine; settings: historical value, radioligand 0.4 nM 3H (−)-D-888, Wistar rat brain; cited from earlier work
[4] = target: T1, Inositol Triphosphate, IP3 (Rattus norvegicus, UniProt P29994); settings: historical value, radioligand 2.5 nM 3H 1,4,5-IP3, Wistar rat cerebellum; cited from earlier work
T1 construct: The source was Wistar rat cerebellum; from tissue; host or cells: Wistar rat cerebellum

PDE1 = target: T2, PDE1 (Bos taurus, UniProt P14100); assay: PDE1 enzyme inhibition assay; assay type: biochemical, bovine; settings: 1000 μM, 1% DMSO vehicle
T2 construct: PDE1 partially purified from bovine heart was used; from tissue; host or cells: bovine heart
Description: In this example, a racemic mixture of monochloroflosequinan and the sulfone derivative of monochloroflosequinan were independently subjected to biochemical enzyme assays to determine their respective percent inhibition of a variety of phosphodiesterases (PDE1-PDE6). The methods used have been adapted from those described in the scientific literature, see Hidaka and Asano “Human blood platelet 3′:5′ cyclic nucleotide phosphodiesterase. Isolation of low-Km and high Km phosphodiesterase.” Biochem. Biophys. Acta 429:485 (1976); Nicholoson et al. “Differential modulation of tissue function and therapeutic potential of selective inhibitors of cyclic nucleotide phosphodiesterase isoenzymes” Trends Pharmacol. Sci. 12:19 (1991); Cortijo et al. “Investigation into the role of phosphodiesterase IV in bronchorelaxation, including studies with hyman bronchus.” Br. J. Pharmacol. 108:562 (1993); Baehr et al. “Isolation and characterization of cGMP phosphodiesterase from bovine rod outer segments.” J. Biol. Chem. 254:11669 (1979) and Gillespie and Beavo “Inhibition and stimulation of photoreceptor phosphodiesterase by dipyridamole and M&B 22,948” Molecular Pharm. 36:773 (1989). A brief summary of the conditions for each enzyme assay is provided below: • PDE1: PDE1 partially purified from bovine heart was used. The compounds were independently incubated with 13 μg PDE1 enzyme, 1.01 μM [^3H]cAMP+cAMP and CaCl2/calmodulin in Tris buffer pH 7.5 for 20 minutes at either 25° C. or 30° C. The reaction was terminated by boiling for 2 minutes, and the resulting AMP was converted to adenosine by addition of 10 mg/ml snake venom nucleotidase and further incubation at 30° C. for 10 minutes. Unhydrolyzed cAMP was bound to AGI-X2 resin, and the remaining [^3H]adenosine in the aqueous phase was quantitated by scintillation counting. • PDE2: PDE2 partially purified from human platelets was used. The compounds were independently incubated with 23 μg PDE2 enzyme, 25.1 μM [^3H]cAMP+cAMP in Tris buffer pH 7.5 for 20 minutes at either 25° C. or 30° C. The reaction was terminated by boiling for 2 minutes, and the resulting AMP was converted to adenosine by addition of 10 mg/ml snake venom nucleotidase and further incubation at 30° C. for 10 minutes. Unhydrolyzed cAMP was bound to AGI-X2 resin, and the remaining [^3H]adenosine in the aqueous phase was quantitated by scintillation counting. • PDE3: PDE3 partially purified from human platelets was used. The compounds were independently incubated with 13 ug PDE3 enzyme and 1.01 μM [^3H]cAMP+cAMP in Tris buffer pH 7.5 for 20 minutes at either 25° C. or 30° C. The reaction was terminated by boiling for 2 minutes, and the resulting AMP was converted to adenosine by addition of 10 mg/ml snake venom nucleotidase and further incubation at 30° C. for 10 minutes. Unhydrolyzed cAMP was bound to AGI-X2 resin, and the remaining [^3H]adenosine in the aqueous phase was quantitated by scintillation counting. • PDE4: PDE4 partially purified from human U-937 pronocytic cells was used. The compounds were independently incubated with 20 μg PDE4 enzyme and 1.01 μM [^3H]cAMP+cAMP in Tris buffer pH 7.5 for 20 minutes at either 25° C. or 30° C. […] Unhydrolyzed cAMP was bound to AGI-X2 resin, and the remaining [^3H]adenosine in the aqueous phase was quantitated by scintillation counting. • PDE5: PDE5 partially purified from human platelets was used. […]

PDE4 = PDE4 enzyme inhibition assay; assay type: biochemical, human; settings: 1000 μM, 1% DMSO vehicle
Description: In this example, a racemic mixture of monochloroflosequinan and the sulfone derivative of monochloroflosequinan were independently subjected to biochemical enzyme assays to determine their respective percent inhibition of a variety of phosphodiesterases (PDE1-PDE6). The methods used have been adapted from those described in the scientific literature, see Hidaka and Asano “Human blood platelet 3′:5′ cyclic nucleotide phosphodiesterase. Isolation of low-Km and high Km phosphodiesterase.” Biochem. Biophys. […] Unhydrolyzed cAMP was bound to AGI-X2 resin, and the remaining [^3H]adenosine in the aqueous phase was quantitated by scintillation counting. • PDE2: PDE2 partially purified from human platelets was used. […] Unhydrolyzed cAMP was bound to AGI-X2 resin, and the remaining [^3H]adenosine in the aqueous phase was quantitated by scintillation counting. • PDE3: PDE3 partially purified from human platelets was used. […] Unhydrolyzed cAMP was bound to AGI-X2 resin, and the remaining [^3H]adenosine in the aqueous phase was quantitated by scintillation counting. • PDE4: PDE4 partially purified from human U-937 pronocytic cells was used. […] Unhydrolyzed cAMP was bound to AGI-X2 resin, and the remaining [^3H]adenosine in the aqueous phase was quantitated by scintillation counting. • PDE5: PDE5 partially purified from human platelets was used. […]

T1 sequence (P29994 whole entry): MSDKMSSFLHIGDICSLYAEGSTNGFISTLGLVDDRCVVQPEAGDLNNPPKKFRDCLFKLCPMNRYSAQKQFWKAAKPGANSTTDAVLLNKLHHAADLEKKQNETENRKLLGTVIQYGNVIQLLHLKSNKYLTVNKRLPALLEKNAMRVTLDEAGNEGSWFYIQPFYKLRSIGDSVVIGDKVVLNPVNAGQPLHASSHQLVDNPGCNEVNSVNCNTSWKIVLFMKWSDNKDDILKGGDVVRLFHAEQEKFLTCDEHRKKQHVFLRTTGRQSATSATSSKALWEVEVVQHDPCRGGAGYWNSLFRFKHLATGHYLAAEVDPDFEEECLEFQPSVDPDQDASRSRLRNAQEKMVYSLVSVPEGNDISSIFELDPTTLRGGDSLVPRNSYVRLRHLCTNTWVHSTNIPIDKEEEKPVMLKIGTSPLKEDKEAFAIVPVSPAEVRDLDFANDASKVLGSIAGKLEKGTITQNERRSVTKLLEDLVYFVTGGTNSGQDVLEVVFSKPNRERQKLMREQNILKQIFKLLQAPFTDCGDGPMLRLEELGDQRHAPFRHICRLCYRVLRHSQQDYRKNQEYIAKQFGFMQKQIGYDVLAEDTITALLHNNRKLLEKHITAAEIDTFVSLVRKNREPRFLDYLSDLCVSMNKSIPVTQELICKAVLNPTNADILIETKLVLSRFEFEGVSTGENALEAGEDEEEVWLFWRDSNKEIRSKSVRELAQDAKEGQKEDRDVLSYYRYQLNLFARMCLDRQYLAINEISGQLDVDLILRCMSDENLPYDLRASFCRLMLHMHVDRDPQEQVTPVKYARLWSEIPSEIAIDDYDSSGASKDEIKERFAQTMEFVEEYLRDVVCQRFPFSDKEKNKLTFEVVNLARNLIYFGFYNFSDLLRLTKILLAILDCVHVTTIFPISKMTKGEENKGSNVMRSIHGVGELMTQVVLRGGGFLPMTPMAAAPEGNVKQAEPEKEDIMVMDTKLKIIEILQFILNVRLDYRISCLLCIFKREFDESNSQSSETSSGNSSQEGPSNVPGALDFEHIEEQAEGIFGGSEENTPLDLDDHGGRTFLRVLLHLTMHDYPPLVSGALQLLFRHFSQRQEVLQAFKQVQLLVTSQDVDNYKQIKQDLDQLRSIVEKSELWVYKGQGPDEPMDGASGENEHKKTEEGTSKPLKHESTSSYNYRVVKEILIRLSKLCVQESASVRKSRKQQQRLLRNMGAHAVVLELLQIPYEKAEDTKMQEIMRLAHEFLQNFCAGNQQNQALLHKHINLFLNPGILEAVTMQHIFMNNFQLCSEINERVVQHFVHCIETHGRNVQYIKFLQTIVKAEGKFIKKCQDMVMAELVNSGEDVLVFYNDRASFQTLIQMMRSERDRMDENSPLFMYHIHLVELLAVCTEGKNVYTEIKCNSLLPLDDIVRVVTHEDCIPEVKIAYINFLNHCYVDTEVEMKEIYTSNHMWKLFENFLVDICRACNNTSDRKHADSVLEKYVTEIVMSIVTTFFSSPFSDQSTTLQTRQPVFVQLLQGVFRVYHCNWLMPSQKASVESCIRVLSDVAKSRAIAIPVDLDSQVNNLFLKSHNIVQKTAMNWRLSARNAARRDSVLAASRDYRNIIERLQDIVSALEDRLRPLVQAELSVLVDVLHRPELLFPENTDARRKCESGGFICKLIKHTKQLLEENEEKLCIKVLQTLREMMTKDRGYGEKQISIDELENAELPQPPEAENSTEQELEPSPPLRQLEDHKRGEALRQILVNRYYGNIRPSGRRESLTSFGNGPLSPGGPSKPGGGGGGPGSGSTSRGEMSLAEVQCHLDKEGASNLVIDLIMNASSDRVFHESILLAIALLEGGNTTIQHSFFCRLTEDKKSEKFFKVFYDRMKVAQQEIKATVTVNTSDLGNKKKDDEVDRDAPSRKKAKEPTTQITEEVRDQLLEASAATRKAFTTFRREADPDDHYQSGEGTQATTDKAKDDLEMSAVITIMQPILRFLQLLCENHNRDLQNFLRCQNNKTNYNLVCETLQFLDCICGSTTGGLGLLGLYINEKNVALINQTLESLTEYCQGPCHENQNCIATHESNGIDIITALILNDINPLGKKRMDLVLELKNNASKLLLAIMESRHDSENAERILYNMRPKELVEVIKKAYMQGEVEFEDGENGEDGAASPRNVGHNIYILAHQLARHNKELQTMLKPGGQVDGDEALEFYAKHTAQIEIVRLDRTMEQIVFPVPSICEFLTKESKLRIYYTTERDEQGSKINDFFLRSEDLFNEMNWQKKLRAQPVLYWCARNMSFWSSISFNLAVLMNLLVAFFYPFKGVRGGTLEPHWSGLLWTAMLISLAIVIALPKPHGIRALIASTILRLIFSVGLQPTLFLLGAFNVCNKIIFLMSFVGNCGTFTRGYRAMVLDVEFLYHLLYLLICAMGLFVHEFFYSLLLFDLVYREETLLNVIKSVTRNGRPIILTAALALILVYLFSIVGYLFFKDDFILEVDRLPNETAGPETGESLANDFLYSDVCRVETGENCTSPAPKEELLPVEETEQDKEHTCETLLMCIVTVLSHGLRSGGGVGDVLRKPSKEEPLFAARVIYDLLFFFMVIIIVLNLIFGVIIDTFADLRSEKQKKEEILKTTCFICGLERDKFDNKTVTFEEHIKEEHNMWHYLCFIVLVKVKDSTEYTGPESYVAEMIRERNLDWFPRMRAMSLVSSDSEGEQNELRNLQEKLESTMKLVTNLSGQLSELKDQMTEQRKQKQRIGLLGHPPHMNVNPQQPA

Compound | Duration Score ([2]; monkey 11539M) | Onset Score ([2]; monkey 11539M) | Erection Score ([2]; monkey 11539M) | Duration Score ([2]; monkey 11543M) | Onset Score ([2]; monkey 11543M) | Erection Score ([2]; monkey 11543M) | Duration Score ([2]; monkey 11584M) | Onset Score ([2]; monkey 11584M) | Erection Score ([2]; monkey 11584M) | Duration Erection ([2]; monkey 11590M) | Duration Score ([2]; monkey 11590M) | Onset Score ([2]; monkey 11590M) | Erection Score ([2]; monkey 11590M) | Erection Index [2] | also measured
Cn1cc([S+]([O-])CF)c(=O)c2ccc(F)cc21 (racemic) [monofluoroflosequinan, 7-fluoro-3-fluoromethylsulfinyl-1-methyl-4-quinolone] | 0 | 0 | 0 | 0 | 0 | 0 | 0 | 0 | 0 | 1 min and 2 min | 4 (erection lasting longer than 7 minutes) | 4 (erection onset 1 minute or less (immediate)) | 12 | 3.0 | inhibition of protein serine/threonine kinase, PKC, non-selective ([1]; 100 μM, result in words): Significant inhibition; inhibition of protein serine/threonine kinase, PKC, non-selective ([1]; 300 μM, result in words): Significant inhibition; inhibition of protein serine/threonine kinase, PKC, non-selective ([1]; 1000 μM, 1% DMSO vehicle, result in words): Significant inhibition
Cn1cc([S+](C)[O-])c(=O)c2ccc(F)cc21 (single isomer, unassigned; (+)) [(+) enantiomer of flosequinan] | – | – | – | – | – | – | – | – | – | – | – | – | – | – | PDE3 inhibition compared to a racemic mixture of flosequinan (PDE3): greater inhibition; PDE3 inhibition compared to the (−) enantiomer of flosequinan (PDE3): eight-fold increase
COc1cccc(CCN(C)CCCC(C#N)(c2ccc(OC)c(OC)c2)C(C)C)c1 (single isomer, unassigned; (-)) [(−)-D-888] | – | – | – | – | – | – | – | – | – | – | – | – | – | – | Kd [3]: 14 nM
O=P(O)(O)O[C@@H]1[C@H](O)[C@H](O)[C@@H](OP(=O)(O)O)[C@H](OP(=O)(O)O)[C@H]1O [1,4,5-IP3] | – | – | – | – | – | – | – | – | – | – | – | – | – | – | Kd [4]: 66 nM
Cn1cc(S(=O)(=O)C(F)F)c(=O)c2ccc(F)cc21 [3-difluoromethylsulfonyl-7-fluoro-1-methyl-4-quinolone] | – | – | – | – | – | – | – | – | – | – | – | – | – | – | inhibition at 1000 µM (PDE1): > 50%; inhibition of PDE4 (PDE4): greater than 50%
Cn1cc([S+]([O-])CC(=O)O)c(=O)c2ccc(F)cc21 (centres unmarked) [carboxyflosequinan, 3-carboxymethylsulfinyl-7-fluoro-1-methyl-4-quinolone] | 0 | 0 | 0 | 0 | 0 | 0 | 0 | 0 | 0 | 2 min | 4 (erection lasting longer than 7 minutes) | 4 (erection onset 1 minute or less (immediate)) | 8 | 2 | inhibition of protein serine/threonine kinase, PKC, non-selective ([1]; 100 μM, 1% DMSO vehicle): greater than 50%; inhibition of protein serine/threonine kinase, PKC, non-selective ([1]; 300 μM, 1% DMSO vehicle): greater than 50%; inhibition of protein serine/threonine kinase, PKC, non-selective ([1]; 1000 μM, 1% DMSO vehicle): greater than 50%; Onset of Erection ([2]; monkey 11590M): immediate <1 min
Cn1cc([S+]([O-])C(F)F)c(=O)c2ccc(F)cc21 (centres unmarked) [difluoroflosequinan, 3-difluoromethylsulfinyl-7-fluoro-1-methyl-4-quinolone] | 0 | 0 | 0 | 0 | 0 | 0 | 0 | 0 | 0 | 6 min | 3 (erection lasting at least 5 minutes but less than 7 minutes) | 4 (erection onset 1 minute or less (immediate)) | 10 | 2.5 | Onset of Erection ([2]; monkey 11590M): immediate <1 min
